Consider two molecules from US20200377459A1, “CHARGED ION CHANNEL BLOCKERS AND METHODS FOR USE” (President and Fellows of Harvard College, priority 2015, published 2020).

Experiment [1] relates to paw incision-induced thermal hyperalgesia. Put plainly: Paw incision-induced thermal hyperalgesia. The note with it: rats, intradermal injection into the surgical wound, 1 and 3 hour post-treatment. It counts as in vivo. On the procedure:
FIGS. 3A-3B are data showing reversal of paw incision-induced thermal hyperalgesia by charged sodium channel blockers. […] The data are means±SEM of 8 rats per group. The statistical comparison with the contralateral paw (*) is indicated by ***P<0.001. All procedures were approved by the Institutional Animal Care and Use Committees. Mice and rats were housed in standard environmental conditions (12-h light/dark cycle; 23° C.; food and water ad libitum) at facilities accredited by the Association for Assessment and Accreditation of Laboratory Animal Care. 8-week old male BALB/c (stock number: 001026) and C57BL/6J (stock number 000664) mice were purchased from Jackson Laboratory and respectively used in allergic airway inflammation (FIG. 5) and pain hypersensitivity model (FIGS. 2A-2D). 6-week old male Sprague-Dawley (stock number: 400) rats, 150±25 grams, were purchased from Charles River laboratory and used to assess pain hypersensitivity (FIG. 3). The compounds were injected in the plantar surface of each animal's right hind paw in 10 μl (mice) or 50 μl (rats) volume of 1:1 emulsion of Complete Freund's Adjuvant (CFA). […] On the 4th day, their thermal nociceptive threshold was evaluated. […] Impact of treatment was analyzed 1 h prior and 1, 3, 6 and 24 h post-treatment. […] With each reading the apparatus was set with a cut-off time of 32 s. […]

For experiment [2], the system named is thermal nociceptive threshold. Put plainly: Thermal nociceptive threshold after acute intraplantar injection in naive animals. It counts as in vivo, rats. The note with it: for difference in thermal nociceptive threshold between contralateral and injected paw: rats, acute intraplantar injection 50 μl, 0.5%, no injury.
The test system of experiment [3] is allergic airway inflammation induced by Ovalbumin. In words: Ovalbumin allergic airway inflammation, BALF immune cell counts. The experiment is classed as in vivo. The following applies: OVA-exposed mice, aerosolized 100 μM on day 18, read day 21. On the procedure:
FIG. 5A-5E are results showing that lung sensory neuron silencing with N-ethyl-etidocaine (Compound 21) reduces allergic airway inflammation. OVA-exposed mice (day 21) develop increases in BALF total (FIG. 5A), and CD45+ cells (FIG. 5B), including eosinophil (FIG. 5C), macrophage (FIG. 5D) and T-cell (FIG. 5E) counts. In comparison to vehicle treatment, the silencing of sensory neurons using aerosolized QX-314 (100 μM, hollow square) or N-ethyl-etidocaine (Compound 21) (100 μM, dark square) decreased these levels. […] Data expressed as mean S.E.M; Two-tailed unpaired Student's t-test (n=8-16 animals/group; 1-2 cohorts). […]
Allergic airway inflammation was studied in an ovalbumin (OVA) based model. […] Drugs were nebulized on day 18 (10:00 am) and inflammation (BALF cell content)/airway hyper-responsiveness were assessed on day 21 (10:00 am). […]
Bronchoalveolar lavage fluid (BALF) cells were re-suspended in FACS buffer (PBS, 2% FCS, EDTA), and incubated with Fc block (0.5 mg/ml, 10 min; BD Biosciences). […] A leukocyte differential count was determined during flow cytometry analysis of cells expressing the common leukocyte antigen CD45 (BD Pharmigen; cat no: 553079). […] Total BAL cell counts were performed using a standard hemocytometer, with absolute cell numbers calculated as total BAL cell number multiplied by the percentage of cell subpopulation as determined by FACS.

“Also recorded” adds a separate entry of the source.

On to `CCC[N+](CC)(CC)C(CC)C(=O)Nc1c(C)cccc1C` (stereo not shown) [Compound 21, N-ethyl etidocaine], for which the “thermal hyperalgesia after surgical incision versus contralateral paw” value in experiment [1] is listed as “absent”. The “long lasting analgesia in naïve animals” value in experiment [2] (naïve animals) was “without long lasting analgesia”. Further, the “difference in thermal nociceptive threshold between contralateral and injected paw” value in experiment [2] is on record as “no differences”. In addition, in experiment [3], the “BALF immune cell levels (total, CD45+, eosinophil, macrophage, T-cell)” value was “blocked; also recorded: potently reversed; also recorded: decreased; also recorded: tendency toward a greater decrease in comparison to QX-314”.
As for `CC[N+](CC)(CC)CC(=O)Nc1c(C)cccc1C` [QX-314, reference compound], the “thermal hyperalgesia after surgical incision versus contralateral paw” value in experiment [1] is given as “absent”. In experiment [2], the “difference in thermal nociceptive threshold between contralateral and injected paw” value is recorded as “no differences”. The “BALF immune cell levels (total, CD45+, eosinophil, macrophage, T-cell)” value in experiment [3] is given as “decreased”.
